# According to patent publication EP4793279A1, “COMPOUND AND METHOD FOR TREATING AND/OR […] KERATOSIS” (priority 2023, dated 2025):
# Read-outs that look alike come from different tables or passages of the source.
# Key:
# [1] = in water
# [2] = for plasma drug concentrations above the LLOQ: topical gel, dose levels 1-5, LLOQ 0.02 ng/mL
# [3] = system: human liver cancer HepG2 cells; conditions: cited from earlier work
# [4] = 20 °C
# [5] = for Labeled amount / Related substances Impurity A / Related substances Impurity B / Related substances Impurity C / Related substances Impurity D / Related substances Impurity E / Related substances Impurity F / Related substances RRT0.73 / Related substances RRT1.10 / Related substances RRT2.18 / Related substances Total impurities: mixed 1:5 with CMC-Na
# [6] = target: beclin1 (Homo sapiens, UniProt Q14457); conditions: targets beclin1; cited from earlier work
# [7] = system: experimental autoimmune encephalomyelitis (EAE); conditions: in vivo; cited from earlier work
# [8] = High humidity for 10 days (RH 90%±5%)
# [9] = High temperature for 10 days (60°C±2°C)
# Chain of beclin1 (Q14457 whole entry, species assumed): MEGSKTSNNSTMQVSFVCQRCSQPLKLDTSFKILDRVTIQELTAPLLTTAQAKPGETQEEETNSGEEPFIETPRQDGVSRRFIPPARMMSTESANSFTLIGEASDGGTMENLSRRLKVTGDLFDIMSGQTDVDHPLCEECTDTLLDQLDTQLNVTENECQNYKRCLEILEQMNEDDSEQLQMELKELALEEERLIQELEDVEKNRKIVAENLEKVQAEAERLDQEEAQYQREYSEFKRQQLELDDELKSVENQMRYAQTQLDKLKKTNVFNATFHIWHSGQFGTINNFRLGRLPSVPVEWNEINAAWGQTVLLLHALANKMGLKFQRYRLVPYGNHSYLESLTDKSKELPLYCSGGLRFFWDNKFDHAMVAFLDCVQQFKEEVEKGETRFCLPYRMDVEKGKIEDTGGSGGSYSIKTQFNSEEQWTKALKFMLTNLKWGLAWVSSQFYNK
smiles,measurement,setting,value
CO[C@H]1[C@H](O)[C@H](O[C@H]2CC[C@@]3(C)[C@H](CC[C@@H]4[C@@H]3CC[C@]3(C)[C@@H](C5=CC(=O)OC5)CC[C@]43O)C2)O[C@@H](C)[C@@H]1O [17β-neriifolin],water solubility,[1],about 70 µg/mL
same,"systemic exposure, dose dependence",[2]; 0.008-0.06 mg/cm^2 dose range,No dose-dependent increase
same,plasma drug concentrations above the LLOQ,[2]; four Australian subjects,0.021 to 0.101 ng/mL
same,plasma drug concentrations above the LLOQ,[2]; seven Chinese subjects,0.022 to 0.106 ng/mL
same,cell cycle arrest and apoptosis,[3],induce cell cycle arrest and apoptosis
same,Dissolution behavior,"[4]; Ethanol concentration 50 %, sample concentration 24 mg/g",Dissolved
same,Dissolution behavior,"[4]; Ethanol concentration 66 %, sample concentration 32 mg/g",Dissolved
same,Dissolution behavior,"[4]; Ethanol concentration 75 %, sample concentration 40 mg/g",Dissolved
same,Dissolution behavior,"[4]; Ethanol concentration 100 %, sample concentration 50 mg/g",Dissolved
same,stability of the combination,[5]; combination with sodium carboxymethyl cellulose compared with combination with Carbomer,significantly superior
same,impact on the related substances and drug content,"[5]; combined 1:5 with sodium carboxymethyl cellulose, high temperature, high humidity, illumination, 10 days",no impact
same,Labeled amount,[5]; 0 days,99.56%
same,Related substances Impurity A,[5]; 0 days,0.17%
same,Related substances Impurity B,[5]; 0 days,0.36%
same,Related substances Impurity C,[5]; 0 days,0.25%
same,Related substances Impurity D,[5]; 0 days,0.13%
same,Related substances Impurity E,[5]; 0 days,0.15%
same,Related substances Impurity F,[5]; 0 days,0.14%
same,Related substances RRT0.73,[5]; 0 days,0.05%
same,Related substances RRT1.10,[5]; 0 days,0.04%
same,Related substances RRT2.18,[5]; 0 days,0.03%
same,Related substances Total impurities,[5]; 0 days,1.32%
same,Labeled amount,[5]; [8],99.42%
same,Related substances Impurity A,[5]; [8],0.17%
same,Related substances Impurity B,[5]; [8],0.36%
same,Related substances Impurity C,[5]; [8],0.25%
same,Related substances Impurity D,[5]; [8],0.13%
same,Related substances Impurity E,[5]; [8],0.15%
same,Related substances Impurity F,[5]; [8],0.14%
same,Related substances RRT0.73,[5]; [8],0.05%
same,Related substances RRT1.10,[5]; [8],0.04%
same,Related substances RRT2.18,[5]; [8],0.03%
same,Related substances Total impurities,[5]; [8],1.32%
same,Labeled amount,[5]; [9],100.95%
same,Related substances Impurity A,[5]; [9],0.17%
same,Related substances Impurity B,[5]; [9],0.36%
same,Related substances Impurity C,[5]; [9],0.25%
same,Related substances Impurity D,[5]; [9],0.13%
same,Related substances Impurity E,[5]; [9],0.15%
same,Related substances Impurity F,[5]; [9],0.14%
same,Related substances RRT0.73,[5]; [9],0.05%
same,Related substances RRT1.10,[5]; [9],0.04%
same,Related substances RRT2.18,[5]; [9],0.03%
same,Related substances Total impurities,[5]; [9],1.32%
same,Labeled amount,[5]; Strong light for 10 days,99.96%
same,Related substances Impurity A,[5]; Strong light for 10 days,0.17%
same,Related substances Impurity B,[5]; Strong light for 10 days,0.36%
same,Related substances Impurity C,[5]; Strong light for 10 days,0.25%
same,Related substances Impurity D,[5]; Strong light for 10 days,0.13%
same,Related substances Impurity E,[5]; Strong light for 10 days,0.15%
same,Related substances Impurity F,[5]; Strong light for 10 days,0.14%
same,Related substances RRT0.73,[5]; Strong light for 10 days,0.05%
same,Related substances RRT1.10,[5]; Strong light for 10 days,0.04%
same,Related substances RRT2.18,[5]; Strong light for 10 days,0.03%
same,Related substances Total impurities,[5]; Strong light for 10 days,1.32%
CO[C@H]1[C@H](O)[C@H](O[C@H]2CC[C@@]3(C)[C@H](CC[C@@H]4[C@@H]3CC[C@]3(C)[C@@H](C5=CC(=O)OC5)CC[C@]43O)C2)O[C@@H](C)[C@@H]1O [neriifolin],formation of LC3-associated phagosomes,[6],inhibit the formation of LC3-associated phagosomes
same,progression of experimental autoimmune encephalomyelitis (EAE),[7],ameliorate the progression
